Columns and labels:
TTK = molecular target: T1, TTK (Homo sapiens, UniProt P33981); assay: TTK enzyme inhibition, ADP-Glo kinase assay; type: biochemical; set-up: purchased Signalchem T20-10G; settings: ATP 5 μM
T1 sequence (P33981 1-857): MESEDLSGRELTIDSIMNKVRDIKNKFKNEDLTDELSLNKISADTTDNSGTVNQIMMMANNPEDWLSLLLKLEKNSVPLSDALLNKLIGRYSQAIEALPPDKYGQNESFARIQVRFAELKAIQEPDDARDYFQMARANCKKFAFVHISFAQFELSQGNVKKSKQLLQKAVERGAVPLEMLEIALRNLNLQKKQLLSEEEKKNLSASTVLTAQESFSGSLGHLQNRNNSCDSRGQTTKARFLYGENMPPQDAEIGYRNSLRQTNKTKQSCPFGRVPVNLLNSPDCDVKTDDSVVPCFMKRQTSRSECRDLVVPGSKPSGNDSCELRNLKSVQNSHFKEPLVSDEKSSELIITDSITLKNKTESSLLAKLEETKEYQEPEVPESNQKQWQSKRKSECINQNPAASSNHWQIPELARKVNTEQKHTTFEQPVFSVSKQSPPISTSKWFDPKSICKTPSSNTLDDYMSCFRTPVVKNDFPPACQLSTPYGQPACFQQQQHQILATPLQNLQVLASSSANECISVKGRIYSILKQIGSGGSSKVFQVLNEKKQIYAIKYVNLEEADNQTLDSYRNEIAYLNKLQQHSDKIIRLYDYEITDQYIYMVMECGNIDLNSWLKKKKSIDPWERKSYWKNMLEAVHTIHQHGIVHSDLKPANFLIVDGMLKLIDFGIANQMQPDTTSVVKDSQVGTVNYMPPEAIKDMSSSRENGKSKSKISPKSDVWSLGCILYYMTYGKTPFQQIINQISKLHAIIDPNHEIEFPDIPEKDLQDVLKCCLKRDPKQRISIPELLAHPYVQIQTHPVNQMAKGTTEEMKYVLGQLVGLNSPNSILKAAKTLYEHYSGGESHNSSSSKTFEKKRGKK
Method in brief: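 Recombinant human TTK (7.5 ng) reacted with 5 μM ATP and MBP substrate (0.2 μg) for 4 h at 25° C in Tris-HCl pH 7.4, MgCl2, BSA, DTT buffer, compound at 0.000017–1 μM. ADP formation by ADP-Glo luminescence; IC50 (nM) relative to solvent control.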

MDA-MB-231 cell line = assay: MDA-MB-231 cancer cell proliferation inhibition (Cell Titer-Glo); type: cell-based; settings: Homo sapiens, MDA-MB-231 triple-negative breast cancer cell line, 72 hours
Method in brief: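 GI50 comes from CellTiter-Glo luminescence, read 10 min after reagent addition at RT, following 72 h compound treatment. Eleven concentrations were used (⅓ steps, highest 10 μM final) on 2000 cells/well. MDA-MB-231 and MDA-MB-468 were grown in DMEM, SHP-77 in RPMI.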

human GST-CLK1 (129-end) = molecular target: T2, human GST-CLK1 (129-end) (Homo sapiens, UniProt P49759); assay: GST-CLK1 enzyme inhibition, ADP-Glo kinase assay; type: biochemical; settings: ATP 10 uM
T2 construct: purified human GST-CLK1 (129-end, Signalchem) enzyme; GST; purchased Signalchem
Method in brief: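 ADP formation was read by ADP-Glo luminescence after 1 h at 25° C with 3 ng human GST-CLK1 (129-end), substrate and 10 uM ATP in Tris pH 7.4 buffer containing MgCl2, BSA and DTT. Inhibition relative to untreated solvent control gave IC50 (nM), run in triplicate.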

T2 sequence (P49759 129-484 limits assumed): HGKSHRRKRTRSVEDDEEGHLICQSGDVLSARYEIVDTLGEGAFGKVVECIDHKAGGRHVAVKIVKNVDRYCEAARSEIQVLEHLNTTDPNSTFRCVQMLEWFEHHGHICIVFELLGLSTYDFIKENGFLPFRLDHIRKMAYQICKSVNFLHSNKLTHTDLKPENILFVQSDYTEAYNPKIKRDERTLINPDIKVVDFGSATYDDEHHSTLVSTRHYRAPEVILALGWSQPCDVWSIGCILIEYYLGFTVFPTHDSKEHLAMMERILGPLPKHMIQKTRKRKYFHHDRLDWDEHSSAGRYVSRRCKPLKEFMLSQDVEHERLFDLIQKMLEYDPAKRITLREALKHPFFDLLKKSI

Structure (SMILES) | IC50 (TTK) [nM] | GI50 (MDA-MB-231 cell line) [nM] | IC50 (human GST-CLK1 (129-end)) [nM]
CNc1cc(Nc2ccc(P3(=O)CCN(C4CC4)CC3)cc2OC)nc2[nH]cc(C(F)(F)F)c12 [Example 205, 1-cyclopropyl-4-(3-methoxy-4-((4-(methylamino)-3-(trifluoromethyl)-1H-pyrrolo[2,3-b]pyridin-6-yl)amino)phenyl)-1,4-azaphosphinane 4-oxide] | < 100 | 301 to 1000 | < 100
CCNc1cc(Nc2ccc(C(=O)N3CCC(N4C[C@@H]5C[C@H]4CO5)CC3)c3c2OCC3)nc2[nH]cc(C(F)(F)F)c12 [Example 105, (4-((1S,4S)-2-oxa-5-azabicyclo[2.2.1]heptan-5-yl)piperidin-1-yl)(7-((4-(ethylamino)-3-(trifluoromethyl)-1H-pyrrolo[2,3-b]pyridin-6-yl)amino)-2,3-dihydrobenzofuran-4-yl)methanone] | < 100 | 301 to 1000 | < 100
CCNc1cc(Nc2ccc(C(=O)N3CCN(C4COC4)CC3)c3c2OCC3)nc2[nH]cc(C(F)(F)F)c12 [Example 248, (7-((4-(ethylamino)-3-(trifluoromethyl)-1H-pyrrolo[2,3-b]pyridin-6-yl)amino)-2,3-dihydrobenzofuran-4-yl)(4-(oxetan-3-yl)piperazin-1-yl)methanone] | < 100 | 301 to 1000 | < 100
COc1cc(S(=O)(=O)N2CCOCC2)ccc1Nc1cc(C2CC2)c2c(C#N)c[nH]c2n1 [Example 227, 4-cyclopropyl-6-((2-methoxy-4-(morpholinosulfonyl)phenyl)amino)-1H-pyrrolo[2,3-b]pyridine-3-carbonitrile] | < 100 | 301 to 1000 | 301 to 1000
CNc1cc(Nc2ccc(C(=O)N3CC[C@H](N4CCOCC4)C3)c3c2OCC3)nc2[nH]cc(C(F)(F)F)c12 [Example 217, (S)-(7-((4-(methylamino)-3-(trifluoromethyl)-1H-pyrrolo[2,3-b]pyridin-6-yl)amino)-2,3-dihydrobenzofuran-4-yl)(3-morpholinopyrrolidin-1-yl)methanone] | < 100 | 301 to 1000 | < 100
N#Cc1c[nH]c2nc(Nc3ccc(C(=O)N4CCOCC4)c4c3OCCO4)cc(C3CC3)c12 [Example 225, 4-cyclopropyl-6-((8-(morpholine-4-carbonyl)-2,3-dihydrobenzo[b] [1,4]dioxin-5-yl)amino)-1H-pyrrolo[2,3-b]pyridine-3-carbonitrile] | < 100 | 301 to 1000 | 301 to 1000
CNc1cc(Nc2ccc(P3(=O)CCN(C4CC4)CC3)cc2OC)nc2[nH]cc(C#N)c12 [Example 146, 6-((4-(1-cyclopropyl-4-oxido-1,4-azaphosphinan-4-yl)-2-methoxyphenyl)amino)-4-(methylamino)-1H-pyrrolo[2,3-b]pyridine-3-carbonitrile] | < 100 | 301 to 1000 | 301 to 1000
